tested on: 8×TBD luciferase reporter (YAP) in HEK293T cells; assay: YAP Reporter Assay (8×TBD firefly luciferase reporter); assay type: cell-based; settings: Homo sapiens, HEK-293T; HEK293T cells stably transfected with 8×TBD luciferase reporter and pRLTK; 24-hr incubation; firefly luciferase activity; read-out: Firefly Luciferase IC50
Procedure: HEK293T cells stably transfected with 8×TBD luciferase reporter and pRLTK in 384-well plates were treated with the test compounds, starting from 3 μM (final concentration in assay plate), 1:3 dilution, and 10 points in quadruplicates. Post 24-hr incubation with compounds at 37° C. and 5% CO2, cells were lysed and 8×TBD-driven firefly luciferase and control TK-driven renilla luciferase activities were measured using Promega Dual-Luciferase Reporter Assay System.
Reagents: The reagents used for this study are: DMEM: Invitrogen #11960077, Dual-Glo Luciferase Assay System: Promega-E2980, Puromycin Dihydrochloride: Invitrogen-A1113803, 384-well plate: PerkinElmer-6007480, L-GLUTAMINE: Invitrogen-25030164, Hygromycin B: Invitrogen-10687010, and Penicillin-Streptomycin: Merk-TMS-AB2-C
Media: The media used for this assay were: Culture Medium: DMEM+1 ug/mL puromycin+200 ug/mL hygromycin (with 10% FBS+1 mM L-glutamine); and Assay Medium: DMEM (with 10% FBS+1 mM L-glutamine+1×P/S).
Cell Plating: The appropriate media was warmed at 37° C. by water bath: Culture Medium, Assay Medium, 1*D-PBS, 0.05% trypsin-EDTA. The cells were trypsinized after removing all media, then washed with 1*sterile D-PBS and then with 2 ml 0.05% trypsin-EDTA. The cells were then incubated at RT for one minute. Then 10 ml/75 cm2 flask Assay Medium was added to each flask. Using a 10 ml pipette, the cells were then gently resuspended in the media, until the clumps completely disappeared. The cells were then transferred into 50 ml centrifuge tubes and were centrifuged at 800 rpm for 5 mins. The medium was removed and the cells were resuspended with Assay Medium. An aliquot of cells was used to count the cell density (cells/ml). The cell suspension was then diluted with Assay Medium to a concentration of 6×10^4 cells/ml. 50 ul cells suspension was then plated to 384-well plate (PerkinElmer-6007480), 3×10^3 cells/well and the cells were incubated in an incubator at 37° C., 5% CO2.
Compound Treatment: In the afternoon (incubation of the plate with 3-4 hrs), the test compounds were added by Echo, starting from 3 uM (final concentration in the assay plate), 1:3 dilution, 10 points, quadruplicates. The plate was placed at 37° C., 5% CO2 incubator for 24 hrs.
Detection: The Dual-Glo Luciferase Reagent was prepared by transferring the contents of one bottle of Dual-Glo Luciferase Buffer to one bottle of Dual-Glo Luciferase Substrate to create the Dual-Glo Luciferase Reagent. Mixing was performed by inversion until the substrate was thoroughly dissolved. After mixing, the reagent was aliquoted into 15 ml tubes. In the afternoon (24 hrs post compound treatment), the DMEM+medium in the 384 well plates were aspirated by Microplate Washer.
Measuring firefly luciferase activity: 20 ul Dual-Glo Luciferase Reagent was added to the 384-well plates. The plates were protected from light to prevent interference with the assay. The plates were shaken for 1 min followed centrifuging plates at 1000 rpm for 30 seconds. After waiting at least 10 minutes, the firefly luminescence was measured by Envision.
Measuring renilla luciferase activity: 20 ul Stop-Glo Reagent was added to the 384-well plates. The plates were shaken for 1 min and then centrifuged at 1000 rpm for 30 seconds. After waiting at least 10 minutes, the renilla luminescence was measured by Envision.
Compound IC50 and maximum inhibition on the firefly luciferase and renilla luciferase activities were reported separately.

CN(C#N)CCCNC(=O)c1ccc2c(Oc3ccc(C(F)(F)F)cc3)cccc2c1 [Compound 35, N-(3-(N-methylcyanamido)propyl)-5-(4-(trifluoromethyl)phenoxy)-2-naphthamide] and C#C[C@@H](C)NC(=O)c1ccc2c(Oc3ccc(C(F)(F)F)cc3)cccc2c1 [Compound 61, (R)—N-(but-3-yn-2-yl)-5-(4-(trifluoromethyl)phenoxy)-2-naphthamide] cannot be ordered by IC50: < 100 nM for the first, < 100 nM for the second.

O=C(NC1(c2ccccc2)CC1)c1ccc2c(Oc3ccc(C(F)(F)F)cc3)cccc2c1 [Compound 36, N-(1-phenylcyclopropyl)-5-[4-(trifluoromethyl)phenoxy]naphthalene-2-carboxamide] and O=C(NC1(c2ccccc2)COC1)c1ccc2c(Oc3ccc(C(F)(F)F)cc3)cccc2c1 [Compound 37, N-(3-phenyloxetan-3-yl)-5-(4-(trifluoromethyl)phenoxy)-2-naphthamide] cannot be ordered by IC50: < 100 nM for the first, < 100 nM for the second.

C[C@@H](NC(=O)c1ccc2c(Oc3ccc(C(F)(F)F)cc3)cccc2c1)C1CC1 [Compound 38, (R)—N-(1-cyclopropylethyl)-5-(4-(trifluoromethyl)phenoxy)-2-naphthamide] and C[C@H](NC(=O)c1ccc2c(Oc3ccc(C(F)(F)F)cc3)cccc2c1)C1CC1 [Compound 39, (S)—N-(1-cyclopropylethyl)-5-(4-(trifluoromethyl)phenoxy)-2-naphthamide] cannot be ordered by IC50: < 100 nM for the first, < 100 nM for the second.

C[C@@H](NC(=O)c1ccc2c(Oc3ccc(C(F)(F)F)cc3)cccc2c1)C1COC1 [Compound 40, (R)—N-(1-(oxetan-3-yl)ethyl)-5-(4-(trifluoromethyl)phenoxy)-2-naphthamide] and C[C@H](NC(=O)c1ccc2c(Oc3ccc(C(F)(F)F)cc3)cccc2c1)C1COC1 [Compound 41, (S)—N-(1-(oxetan-3-yl)ethyl)-5-(4-(trifluoromethyl)phenoxy)-2-naphthamide] cannot be ordered by IC50: < 100 nM for the first, < 100 nM for the second.

First: COc1cc(Oc2ccc(C(F)(F)F)cc2)c2ncc(C(=O)N[C@H](C)c3ccccn3)cc2c1 [Compound 42, (R)-6-methoxy-N-(1-(pyridin-2-yl)ethyl)-8-(4-(trifluoromethyl)phenoxy)quinoline-3-carboxamide]
Second: COc1cc(Oc2ccc(C(F)(F)F)cc2)c2ncc(C(=O)N[C@@H](C)c3ccccn3)cc2c1 [Compound 43, (S)-6-methoxy-N-(1-(pyridin-2-yl)ethyl)-8-(4-(trifluoromethyl)phenoxy)quinoline-3-carboxamide]
The IC50 of the first is higher: 100 to 1000 nM for the first, < 100 nM for the second. The second is the more potent here.

COC[C@@H](C)NC(=O)c1cnc2c(Oc3ccc(C(F)(F)F)cc3)cc(OC)cc2c1 [Compound 44, (R)-6-methoxy-N-(1-methoxypropan-2-yl)-8-(4-(trifluoromethyl)phenoxy)quinoline-3-carboxamide] and COC[C@H](C)NC(=O)c1cnc2c(Oc3ccc(C(F)(F)F)cc3)cc(OC)cc2c1 [Compound 45, (S)-6-methoxy-N-(1-methoxypropan-2-yl)-8-(4-(trifluoromethyl)phenoxy)quinoline-3-carboxamide] cannot be ordered by IC50: < 100 nM for the first, < 100 nM for the second.

First: C[C@@H](NC(=O)c1ccc2c(Oc3ccc(C(F)(F)F)cc3)cccc2c1)c1cnccn1 [Compound 46, (R)—N-(1-(pyrazin-2-yl)ethyl)-5-(4-(trifluoromethyl)phenoxy)-2-naphthamide]
Second: C[C@H](NC(=O)c1ccc2c(Oc3ccc(C(F)(F)F)cc3)cccc2c1)c1cnccn1 [Compound 47, (S)—N-(1-(pyrazin-2-yl)ethyl)-5-(4-(trifluoromethyl)phenoxy)-2-naphthamide]
The IC50 of the first is lower: < 100 nM for the first, 100 to 1000 nM for the second.

C[C@@H](NC(=O)c1ccc2c(Oc3ccc(C(F)(F)F)cc3)cccc2c1)c1c[nH]cn1 [Compound 48, (R)—N-(1-(1H-imidazol-4-yl)ethyl)-5-(4-(trifluoromethyl)phenoxy)-2-naphthamide] and C[C@H](NC(=O)c1ccc2c(Oc3ccc(C(F)(F)F)cc3)cccc2c1)c1c[nH]cn1 [Compound 49, (S)—N-(1-(1H-imidazol-4-yl)ethyl)-5-(4-(trifluoromethyl)phenoxy)-2-naphthamide] cannot be ordered by IC50: < 100 nM for the first, < 100 nM for the second.

C[C@H](NC(=O)c1ccc2c(Oc3ccc(C(F)(F)F)cc3)cccc2c1)C(N)=O [Compound 50, (S)—N-(1-amino-1-oxopropan-2-yl)-5-(4-(trifluoromethyl)phenoxy)-2-naphthamide] and C[C@@H](NC(=O)c1ccc2c(Oc3ccc(C(F)(F)F)cc3)cccc2c1)C(N)=O [Compound 51, (R)—N-(1-amino-1-oxopropan-2-yl)-5-(4-(trifluoromethyl)phenoxy)-2-naphthamide] cannot be ordered by IC50: < 100 nM for the first, < 100 nM for the second.

First: C[C@H](NC(=O)c1ccc2c(Oc3ccc(C(F)(F)F)cc3)cccc2c1)c1nn[nH]n1 [Compound 52, (S)—N-(1-(2H-tetrazol-5-yl)ethyl)-5-(4-(trifluoromethyl)phenoxy)-2-naphthamide]
Second: C[C@@H](NC(=O)c1ccc2c(Oc3ccc(C(F)(F)F)cc3)cccc2c1)c1nnn(C)n1 [Compound 57, (R)—N-(1-(2-methyl-2H-tetrazol-5-yl)ethyl)-5-(4-(trifluoromethyl)phenoxy)-2-naphthamide]
The IC50 of the first is higher: 1000 to 3000 nM for the first, 100 to 1000 nM for the second.

First: O=C(NC1(c2ccccn2)CC1)c1ccc2c(Oc3ccc(C(F)(F)F)cc3)cccc2c1 [Compound 54, N-(1-(pyridin-2-yl)cyclopropyl)-5-(4-(trifluoromethyl)phenoxy)-2-naphthamide]
Second: C[C@H](NC(=O)c1ccc2c(Oc3ccc(C(F)(F)F)cc3)cccc2c1)c1ncc[nH]1 [Compound 63, (S)—N-(1-(1H-imidazol-2-yl)ethyl)-5-(4-(trifluoromethyl)phenoxy)-2-naphthamide]
The IC50 of the first is lower: < 100 nM for the first, 100 to 1000 nM for the second.

C[C@H](NC(=O)c1ccc2c(Oc3ccc(C(F)(F)F)cc3)cccc2c1)c1nnnn1C [Compound 55, (S)—N-(1-(1-methyl-1H-tetrazol-5-yl)ethyl)-5-(4-(trifluoromethyl)phenoxy)-2-naphthamide] and C[C@@H](NC(=O)c1ccc2c(Oc3ccc(C(F)(F)F)cc3)cccc2c1)c1nnnn1C [Compound 56, (R)—N-(1-(1-methyl-1H-tetrazol-5-yl)ethyl)-5-(4-(trifluoromethyl)phenoxy)-2-naphthamide] fall in the same range of IC50: 100 to 1000 nM for the first, 100 to 1000 nM for the second.

C[C@H](NC(=O)c1ccc2c(Oc3ccc(C(F)(F)F)cc3)cccc2c1)c1nnn(C)n1 [Compound 58, (S)—N-(1-(2-methyl-2H-tetrazol-5-yl)ethyl)-5-(4-(trifluoromethyl)phenoxy)-2-naphthamide] and C[C@@H](NC(=O)c1ccc2c(Oc3ccc(C(F)(F)F)cc3)cccc2c1)c1ncc[nH]1 [Compound 64, (R)—N-(1-(1H-imidazol-2-yl)ethyl)-5-(4-(trifluoromethyl)phenoxy)-2-naphthamide] cannot be ordered by IC50: < 100 nM for the first, < 100 nM for the second.

C[C@@H](NC(=O)c1ccc2c(Oc3ccc(C(F)(F)F)cc3)cccc2c1)C1CCC1 [Compound 59, (R)—N-(1-cyclobutylethyl)-5-(4-(trifluoromethyl)phenoxy)-2-naphthamide] and C[C@H](NC(=O)c1ccc2c(Oc3ccc(C(F)(F)F)cc3)cccc2c1)C1CCC1 [Compound 60, (S)—N-(1-cyclobutylethyl)-5-(4-(trifluoromethyl)phenoxy)-2-naphthamide] cannot be ordered by IC50: < 100 nM for the first, < 100 nM for the second.

First: C#C[C@H](C)NC(=O)c1ccc2c(Oc3ccc(C(F)(F)F)cc3)cccc2c1 [Compound 62, (S)—N-(but-3-yn-2-yl)-5-(4-(trifluoromethyl)phenoxy)-2-naphthamide]
Second: C[C@H](NC(=O)c1ccc2c(Oc3ccc(C(F)(F)F)cc3)cccc2c1)c1cccc(N)n1 [Compound 65, (S)—N-(1-(6-aminopyridin-2-yl)ethyl)-5-(4-(trifluoromethyl)phenoxy)-2-naphthamide]
The IC50 of the first is lower: < 100 nM for the first, 100 to 1000 nM for the second. The first is the more potent here.
